Data from patent US20250127842A1, “IMMUNE […] THERAPEUTIC NANOPARTICLES” (priority 2021, published 2025).

Test system: ID8-vegfA-defb29 murine ovarian serous carcinoma cell line
Assay: CPMV and CPMV-AUNP therapy in a tumor mouse model (serous ovarian cancer, IP)
Format: in vivo, C57BL/6J mice
Method: FIGS. 3A-3B: (FIG. 3A) Female C57BL/6 mice were inoculated (i.p.) with 2×10^6 ID8-Defb29/Vegf-A cells followed by six weekly injections (i.p.) of PBS control (n=5), 1 μg AUNP (n=3), 100 μg CPMV (n=5), 100 μg CPMV-AUNP (n=7), 100 μg CPMV+1 μg AUNP physical mixture (n=7). Body weight was measured to monitor tumor growth. Data are means±SEM. Data are plotted for a minimum of n=3 per group. (FIG. 3B) Survival curves of the treatment groups.
CPMV and CPMV-AUNP therapy in a tumor mouse model: All animal studies were conducted upon approval and in accordance with the University of California, San Diego Institutional Animal Care and Use Committee (IACUC) guidelines. […] Tumor burden was measured by increase in body weight and data were analyzed and plotted using Graphpad Prism software.
To assay efficacy of the CPMV-AUNP nanoparticle, Applicant used a mouse model of serous ovarian cancer. […] Applicant used luciferase-labeled ID8defb29/vegf cells, allowing us to quantify the disease burden and establishment of disease (data not shown). Imaging is only informative at early time points, before the development of ascites, therefore Applicant used imaging to confirm successful tumor cell injection and tumor formation but then monitored body weight to assess tumor burden and 35 grams body weight was defined as the endpoint for the study. […]

Sequence: SNTSESFGSGGGSGGC [AUNP, anti-PD-1 peptide SNTSESF (side branch of AUNP-12) with GSGGGSGG linker and carboxy-terminal cysteine, from Genscript]
- tumor burden as measured by increase in body weight (1 μg weekly IP, up to day 47 (group removed for non-treatment related reasons)): matched closely the PBS control group
- efficacy against disseminated ovarian tumors (survival, tumor burden), in words (weekly IP: 100 μg CPMV or CPMV-AUNP, 1 μg AUNP, or 100 μg CPMV+1 μg AUNP): no apparent effect
